Source: the supplement of paper PMC10307832

Experiments:
Experiment in all cases: relative viability (nuclei count vs DMSO), 5 days (fraction); higher = more cells survive
[1] = compound: CCOc1cc2ncc(C#N)c(Nc3ccc(OCc4ccccn4)c(Cl)c3)c2cc1NC(=O)/C=C/CN(C)C [Neratinib] + CCNC(=O)c1noc(-c2cc(C(C)C)c(O)cc2O)c1-c1ccc(CN2CCOCC2)cc1 [Luminespib] (partner 0.01 µM)
Procedure, shortened: (§1)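 Lung cancer cell lines in 1536-well plates were dosed by pin tool the day after seeding, either with one drug alone or with a fixed anchor-drug dose plus five library-drug doses (not always all listed) in √10 steps. After 5 days, cells were fixed and their nuclei stained in one step (final 0.05% Triton X-100, 1% formaldehyde, 1 ug/ml Hoechst), then counted on 4× images. Relative viability is the nuclei count in treated wells divided by that in vehicle wells. Values are medians of duplicate plates.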

[2] = compound: CCOc1cc2ncc(C#N)c(Nc3ccc(OCc4ccccn4)c(Cl)c3)c2cc1NC(=O)/C=C/CN(C)C [Neratinib] + O=C(c1cc(Cc2n[nH]c(=O)c3ccccc23)ccc1F)N1CCN(C(=O)C2CC2)CC1 [Olaparib] (partner 8 µM)
Procedure, shortened: as §1

[3] = compound: CCOc1cc2ncc(C#N)c(Nc3ccc(OCc4ccccn4)c(Cl)c3)c2cc1NC(=O)/C=C/CN(C)C [Neratinib] + Nc1ncn([C@H]2C[C@H](O)[C@@H](CO)O2)c(=O)n1 [Decitabine] (partner 2 µM)
Procedure, shortened: as §1

[4] = compound: CCOc1cc2ncc(C#N)c(Nc3ccc(OCc4ccccn4)c(Cl)c3)c2cc1NC(=O)/C=C/CN(C)C [Neratinib] + CS(=O)(=O)CCNCc1ccc(-c2ccc3ncnc(Nc4ccc(OCc5cccc(F)c5)c(Cl)c4)c3c2)o1 [Lapatinib] (partner 2 µM)
Procedure, shortened: as §1

Row | Cell Line | relative viability ([1]; first compound 0.01 µM) | relative viability ([1]; first compound 0.03162 µM) | relative viability ([1]; first compound 0.1 µM) | relative viability ([1]; first compound 0.3162 µM) | relative viability ([1]; first compound 1 µM) | relative viability ([2]; first compound 0.01 µM) | relative viability ([2]; first compound 0.03162 µM) | relative viability ([2]; first compound 0.1 µM) | relative viability ([2]; first compound 0.3162 µM) | relative viability ([2]; first compound 1 µM) | relative viability ([3]; first compound 0.01 µM) | relative viability ([3]; first compound 0.03162 µM) | relative viability ([3]; first compound 0.1 µM) | relative viability ([3]; first compound 0.3162 µM) | relative viability ([3]; first compound 1 µM) | relative viability ([4]; first compound 0.01 µM) | relative viability ([4]; first compound 0.03162 µM) | relative viability ([4]; first compound 0.3162 µM) | relative viability ([4]; first compound 1 µM) | relative viability ([4]; first compound 0.1 µM)
1 | NCI-H460 | 0.0344 | 0.0284 | 0.0244 | 0.0268 | 0.0188 | 0.428 | 0.43 | 0.383 | 0.415 | 0.419 | 0.559 | 0.527 | 0.522 | 0.459 | 0.449 | 1.15 | 1.38 | 0.921 | 0.557 | –
2 | NCI-H1793 | 0.153 | 0.182 | 0.153 | 0.164 | 0.157 | 1 | 0.855 | 0.551 | 0.345 | 0.217 | 0.521 | 0.455 | – | 0.383 | 0.266 | 0.693 | 0.646 | 0.75 | 0.642 | 0.576
3 | NCI-H2347 | 0.472 | 0.385 | – | 0.483 | 0.289 | – | 0.59 | 0.545 | 0.564 | 0.455 | 0.679 | 0.606 | – | 0.545 | 0.633 | 0.812 | 1.04 | 0.952 | 0.83 | 0.94
4 | HARA | 0.685 | 0.743 | 0.662 | 0.271 | 0.117 | 0.811 | – | 0.778 | – | 0.48 | 0.573 | 0.493 | 0.414 | – | 0.476 | 0.994 | 0.73 | 0.569 | 0.712 | 0.339
5 | NCI-H1792 | 0.458 | 0.466 | 0.365 | 0.358 | 0.381 | 0.0369 | 0.65 | 0.376 | 0.257 | 0.174 | 0.731 | 0.576 | 0.503 | 0.516 | 0.546 | 1.02 | 1.08 | 0.81 | 0.849 | 0.547
6 | NCI-H1703 | – | – | – | – | – | 0.536 | 0.486 | 0.402 | 0.218 | 0.162 | – | – | – | – | – | 1.05 | 1.29 | 0.79 | 0.244 | 0.924
7 | CAL-12T | 0.445 | 0.393 | 0.291 | 0.104 | 0.123 | 0.698 | 0.707 | 0.709 | 0.406 | 0.343 | – | – | – | – | – | 0.725 | 0.702 | 0.635 | 0.295 | 0.529
8 | PC-3 [JPC-3] | 0.702 | 0.733 | 0.648 | 0.496 | 0.326 | – | 1.29 | 0.964 | 0.81 | 0.424 | 0.814 | 0.912 | 0.764 | 0.547 | 0.606 | 0.457 | 0.433 | 0.485 | 0.373 | 0.455
9 | NCI-H2087 | 0.16 | 0.172 | 0.151 | 0.14 | 0.148 | 0.622 | 0.496 | 0.643 | 0.424 | 0.255 | 0.272 | 0.333 | 0.239 | 0.254 | 0.215 | 1.02 | 0.995 | 0.989 | 0.894 | –
10 | NCI-H1395 | 0.59 | – | 0.903 | 0.814 | 0.418 | – | 0.491 | 0.449 | 0.469 | 0.413 | 0.681 | 0.807 | 0.749 | 0.769 | 0.559 | 1.02 | 1.54 | 1.22 | 0.784 | 1.11
11 | SW 900 | 0.184 | 0.157 | 0.148 | 0.194 | 0.169 | 0.975 | 0.826 | 0.714 | 0.662 | 0.607 | 0.438 | 0.43 | 0.427 | 0.514 | 0.469 | – | – | – | – | –
12 | NCI-H520 | 0.244 | 0.207 | 0.231 | 0.214 | 0.228 | 0.303 | 0.321 | – | 0.349 | 0.194 | 0.604 | 0.547 | – | – | 0.46 | 1 | 1 | – | 0.682 | 0.858
13 | A549 | – | – | – | – | – | 0.356 | 0.555 | 0.276 | 0.296 | 0.176 | 0.325 | 0.295 | – | 0.264 | 0.318 | 1.09 | 0.968 | – | 0.558 | 0.907
14 | IA-LM | – | – | – | – | – | 0.985 | 0.82 | 0.715 | 0.838 | 0.517 | – | – | – | – | – | 0.708 | 0.822 | 0.914 | 0.619 | 0.63
15 | EKVX | 0.821 | 0.884 | 0.708 | 0.496 | 0.246 | 0.86 | – | 0.624 | 0.341 | 0.203 | 0.339 | 0.351 | 0.324 | 0.197 | 0.16 | 0.186 | 0.212 | 0.195 | 0.189 | 0.179
16 | ChaGo-K-1 | 0.753 | 0.672 | 0.604 | 0.595 | – | 0.412 | 0.469 | 0.331 | 0.392 | 0.401 | 0.517 | 0.581 | 0.517 | 0.526 | 0.534 | – | – | – | – | –
17 | NCI-H1755 | 0.544 | 0.488 | 0.444 | 0.419 | 0.488 | 0.925 | 0.922 | 0.807 | 0.918 | 0.824 | 0.728 | 0.715 | 0.718 | 0.805 | 0.858 | 1.03 | 1.07 | 1.12 | 1.09 | 0.969
18 | NCI-H23 | 0.201 | 0.231 | 0.203 | 0.225 | 0.204 | 0.283 | 0.284 | 0.317 | 0.328 | 0.314 | 0.325 | 0.298 | 0.289 | 0.404 | 0.264 | 1.05 | 0.932 | 1.02 | 0.762 | 1.09
19 | NCI-H2126 | 0.932 | 0.853 | 0.828 | 0.822 | 0.464 | 0.958 | 0.891 | 0.815 | 0.871 | 0.492 | 0.644 | 0.632 | 0.54 | 0.566 | 0.556 | 0.79 | – | 0.754 | 0.672 | 0.735
